Experimental data taken from US10882844B2, “Compounds useful as immunomodulators” (Bristol-Myers Squibb Company, priority 2016, dated 2021).

Molecular target: PD-1/PD-L1 (Homo sapiens (Human), UniProt Q9NZQ7)
Test: PD-1/PD-L1 Homogenous Time-Resolved Fluorescence (HTRF) binding assay
Conditions: PD-1-Ig / PD-L1-His HTRF; value given as range class; read-out: Range or IC50
Excerpt: The ability of the compounds of formula (I) to bind to PD-L1 was investigated using a PD-1/PD-L1 Homogenous Time-Resolved Fluorescence (HTRF) binding assay.
Homogenous Time-Resolved Fluorescence (HTRF) binding assay.
The interaction of PD-1 and PD-L1 can be assessed using soluble, purified preparations of the extracellular domains of the two proteins. The PD-1 and PD-L1 protein extracellular domains were expressed as fusion proteins with detection tags, for PD-1, the tag was the Fc portion of Immunoglobulin (PD-1-Ig) and for PD-L1 it was the 6 histidine motif (PD-L1-His). All binding studies were performed in an HTRF assay buffer consisting of dPBS supplemented with 0.1% […] bovine serum albumin and 0.05% (v/v) Tween-20. For the h/PD-L1-His binding assay, inhibitors were pre-incubated with PD-L1-His (10 nM final) for 15 m in 4 μl of assay buffer, followed by addition of PD-1-Ig (20 nM final) in 1 μl of assay buffer and further incubation for 15 m. HTRF detection was achieved using europium crypate-labeled anti-Ig (1 nM final) and allophycocyanin (APC) labeled anti-His (20 nM final). Antibodies were diluted in HTRF detection buffer and 5 μl was dispensed on top of the binding reaction. The reaction mixture was allowed to equilibrate for 30 minutes and the resulting signal (665 nm/620 nm ratio) was obtained using an EnVision fluorometer. Additional binding assays were established between the human proteins PD-1-Ig/PD-L2-His (20 & 5 nM, respectively) and CD8O-His/PD-L1-Ig (100 & 10 nM, respectively).
Recombinant Proteins: Human PD-1 (25-167) with a C-terminal human Fc domain of immunoglobulin G (Ig) epitope tag [hPD-1 (25-167)-3S-IG] and human PD-L1 (18-239) with a C-terminal His epitope tag [hPD-L1(18-239)-TVMV-His] were expressed in HEK293T cells and purified sequentially by ProteinA affinity chromatography and size exclusion chromatography. Human PD-L2-His and CD80-His was obtained through commercial sources.
The table below lists the IC50 values for representative examples of this disclosure measured in the PD-1/PD-L1 Homogenous Time-Resolved Fluorescence (HTRF) binding assay. Ranges are as follows: A=0.18 nM-0.99 nM; B=1.0 nM-5.0 nM; C=5.01 nM-10.1 nM; D=10.2 nM-200 nM; E=201 nM→10 uM

Sequence of PD-1/PD-L1 (Q9NZQ7 other isoform, or with tags, fused parts or gaps): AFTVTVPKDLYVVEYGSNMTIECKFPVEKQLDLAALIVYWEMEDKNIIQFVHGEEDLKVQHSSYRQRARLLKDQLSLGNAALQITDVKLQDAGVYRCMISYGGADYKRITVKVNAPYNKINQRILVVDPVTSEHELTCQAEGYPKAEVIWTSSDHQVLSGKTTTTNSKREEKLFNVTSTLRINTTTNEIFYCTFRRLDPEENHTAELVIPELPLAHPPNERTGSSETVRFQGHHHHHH

Cc1c(COc2cc(OCc3cncc(C#N)c3)c(CN[C@](C)(CO)C(=O)O)cc2Cl)cccc1-c1ccc2oc(C3CCN(C)CC3)nc2c1 [Example 1020, (R)-2-((5-chloro-2-((5-cyanopyridin-3-yl)methoxy)-4-((2-methyl-3-(2-(1-methylpiperidin-4-yl)benzo[d]oxazol-5-yl)benzyl)oxy)benzyl)amino)-3-hydroxy-2-methylpropanoic Acid]
IC50: 0.18 to 0.99 nM
